Source: US8999956B2, “N-[(het)arylalkyl)] pyrazole(thio)carboxamides and their heterosubstituted analogues” (Bayer Intellectual Property GmbH, priority 2010, dated 2015)
Where two headings read alike, the source gives them in different places.

Legend:
Pyrenophora teres = assay: In vivo preventive test on Pyrenophora teres (barley); conditions: 500 ppm of active ingredient, evaluated 7-9 days after inoculation
Method in brief: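 Preventive test: young barley plants received a water-diluted spray of compound formulated with DMF solvent plus alkylaryl polyglycol ether emulsifier, at the stated rate. Inoculation with an aqueous spore suspension of Pyrenophora teres followed one day after spraying.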

Botrytis cinerea = assay: In vivo preventive test on Botrytis cinerea (beans); conditions: Table L, 500 ppm of active ingredient, lesion size 2 days after inoculation
Protocol: Solvent: 24.5 parts by weight of acetone • 24.5 parts by weight of N,N-dimethylacetamide
Emulsifier: 1 part by weight of alkylaryl polyglycol ether
To produce a suitable preparation of active compound, 1 part by weight of active compound is mixed with the stated amounts of solvent and emulsifier, and the concentrate is diluted with water to the desired concentration.
To test for preventive activity, young plants are sprayed with the preparation of active compound. After the spray coating has dried on, 2 small pieces of agar covered with growth of Botrytis cinerea are placed on each leaf. The inoculated plants are placed in a darkened chamber at 20° C. and a relative atmospheric humidity of 100%.
2 days after the inoculation, the size of the lesions on the leaves is evaluated. 0% means an efficacy which corresponds to that of the untreated control, while an efficacy of 100% means that no disease is observed.

Venturia inaequalis = assay: In vivo preventive test on Venturia inaequalis (apple scab); conditions: 100 ppm of active ingredient, evaluated 10 days after inoculation
Protocol: (§1) Solvent: 24.5 parts by weight of acetone • 24.5 parts by weight of N,N-dimethylacetamide Emulsifier: 1 part by weight of alkylaryl polyglycol ether To produce a suitable preparation of active compound, 1 part by weight of active compound is mixed with the stated amounts of solvent and emulsifier, and the concentrate is diluted with water to the desired concentration. To test for preventive activity, young plants are sprayed with the preparation of active compound at the stated rate of application.

Uromyces appendiculatus = assay: In vivo preventive test on Uromyces appendiculatus (beans); conditions: 100 ppm of active ingredient, evaluated 10 days after inoculation
Protocol: as §1

Alternaria solani = assay: In vivo preventive test on Alternaria solani (tomato); conditions: 500 ppm of active ingredient, evaluated 7 days after inoculation
Method in brief: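 Preventive set-up: Alternaria solani spores, as aqueous suspension, applied to young plants one day after spraying. Spray contained active compound formulated with N,N-dimethylformamide and emulsifier, water-diluted to the desired application rate.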

[1] = tested on: aflatoxines produced by Aspergillus parasiticus; assay: microbe, parasite or virus in culture; format: cell-based
Puccinia triticina = assay: In vivo preventive test on Puccinia triticina (wheat); conditions: Table K, 500 ppm of active ingredient, evaluated 8 days after inoculation
Leptosphaeria nodorum = assay: In vivo preventive test on Leptosphaeria nodorum (wheat); conditions: 500 ppm of active ingredient, evaluated 7-9 days after inoculation
Protocol: as §1, with “Solvent: 49 parts by” for “Solvent: 24.5 parts by weight of acetone • 24.5 parts by”, “sprayed with a preparation of” for “sprayed with the preparation of”, “of application. One day after this treatment, the plants are inoculated with an aqueous spore suspension of Leptosphaeria nodorum.” for “of application.”

Aspergillus parasiticus = assay: microbe, parasite or virus in culture; format: cell-based
Sphaerotheca fuliginea = assay: In vivo preventive test on Sphaerotheca fuliginea (cucumber); conditions: 500 ppm of active ingredient, evaluated 7 days after inoculation
Method in brief: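 Young cucumber plants sprayed with compound (in DMF with alkylarylpolyglycolether emulsifier, diluted in water) at the stated application rate. Inoculated one day later with aqueous Sphaerotheca fuliginea spore suspension. Plants then held in greenhouse at approximately 23° C and approximately 70% relative humidity.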

[2] = log P by HPLC on reversed-phase column (EEC Directive 79/831 Annex V.A8); format: physicochemical
Protocol: In table 1, the log P values were determined in accordance with EEC Directive 79/831 Annex V.A8 by HPLC (High Performance Liquid Chromatography) on a reversed-phase column (C18), using the method described below: Temperature: 40° C.; […]

[3] = tested on: Fusarium nivale (var. majus); assay: In vivo preventive test on Fusarium nivale (wheat); conditions: 500 ppm of active ingredient, evaluated 5 days after inoculation
Protocol: (§2) Solvent: 49 parts by weight of N,N-dimethylacetamide Emulsifier: 1 part by weight of alkylaryl polyglycol ether To produce a suitable preparation of active compound, 1 part by weight of active compound or active compound combination is mixed with the stated amounts of solvent and emulsifier, and the concentrate is diluted with water to the desired concentration. To test for preventive activity, young plants are sprayed with the preparation of active compound or active compound combination at the stated rate of application. After the spray coating has been dried, the plants are slightly injured by using a sandblast and afterwards they are sprayed with a conidia suspension of Fusarium nivale (var. majus).

[4] = tested on: Blumeria graminis fsp. hordei; assay: In vivo preventive test on Blumeria graminis (barley); conditions: 500 ppm of active ingredient, evaluated 7 days after inoculation
Protocol: as §2, with “dusted” for “slightly injured by using a sandblast and afterwards they are sprayed”, “spores” for “a conidia suspension”, “Blumeria graminis fsp. hordei.” for “Fusarium nivale (var. majus).”

Septoria tritici = assay: In vivo preventive test on Septoria tritici (wheat); conditions: 500 ppm of active ingredient, evaluated 21 days after inoculation
Protocol: as §2, with “are” for “are slightly injured by using a sandblast and afterwards they are”, “spore” for “conidia”, “Septoria tritici.” for “Fusarium nivale (var. majus).”

Row | Structure (SMILES) | Efficacy (Pyrenophora teres) [%] | Efficacy (Venturia inaequalis) [%] | Efficacy (Uromyces appendiculatus) [%] | Efficacy (Alternaria solani) [%] | Efficacy (Puccinia triticina) [%] | Efficacy (Leptosphaeria nodorum) [%] | Efficacy (Sphaerotheca fuliginea) [%] | logP [2] | % Inhibition of Aflatoxin at 50 μM [1] [%] | Efficacy [3] [%] | Efficacy [4] [%] | Efficacy (Septoria tritici) [%] | also measured
1 | Cn1nc(C(F)F)c(C(=O)NCC2CCCC(C(F)(F)F)C2)c1Cl (mixture of isomers) [Example 378] | 100 | 100 | 100 | 100 | – | – | – | – | – | – | – | – | Efficacy (Botrytis cinerea): 96%
2 | CC(C)CC(C)C1CCCC1NC(=O)c1c(C(F)F)nn(C)c1Cl (single isomer, unassigned) [Example 312] | 100 | 99 | 100 | 95 | 100 | 95 | 90 | 4.40 isomer A | – | – | – | – | % Inhibition of Aflatoxin at 50 μM ([1]; 50 µM): 100%; % Inhibition of fungal growth at 50 μM (Aspergillus parasiticus; 50 µM): 99%
3 | CC(C)CC(C)C1CCCC1NC(=O)c1c(C(F)F)nn(C)c1Cl (single isomer, unassigned) [Example 314] | 100 | 98 | 85 | 95 | – | 80 | 90 | 4.47 isomer C | – | – | – | – | –
4 | CC(C)CC(C)C1CCCC1NC(=O)c1c(C(F)F)nn(C)c1F (single isomer, unassigned) [Example 316] | 100 | 100 | 100 | 90 | 100 | 80 | 98 | 4.19 isomer A | 100 | – | – | – | % Inhibition of fungal growth at 50 μM (Aspergillus parasiticus; 50 µM): 100%
5 | CC(C)CC(C)C1CCCCC1NC(=O)c1c(C(F)F)nn(C)c1Cl (single isomer, unassigned) [Example 335] | – | 100 | 100 | – | 100 | – | – | 4.96 isomer B | 100 | 86 | 70 | – | % Inhibition of fungal growth at 50 μM (Aspergillus parasiticus; 50 µM): 84%
6 | CC(C)CC(C)C1CCCCC1NC(=O)c1c(C(F)F)nn(C)c1F (single isomer, unassigned) [Example 337] | 100 | 74 | 86 | 100 | 70 | – | 100 | 4.47 isomer A | – | – | – | 78 | Efficacy (Botrytis cinerea): 93%
7 | CCCC1CCCCC1NC(=O)c1c(C(F)F)nn(C)c1F (single isomer, unassigned) [Example 343] | 100 | 97 | – | 95 | 70 | – | – | 3.42 isomer A | 100 | 100 | 94 | 100 | % Inhibition of fungal growth at 50 μM (Aspergillus parasiticus; 50 µM): 87%
8 | Cn1nc(C(F)F)c(C(=O)NC2CCCCC2CCC(C)(C)C)c1Cl (single isomer, unassigned) [Example 354] | – | 100 | 100 | – | 100 | – | – | 4.73 isomer A | – | 100 | 100 | – | –
9 | Cn1nc(C(F)F)c(C(=O)NC2CCCCC2CCC(C)(C)C)c1Cl (single isomer, unassigned) [Example 355] | – | 99 | 100 | – | – | – | – | 4.95 isomer B | – | 100 | 80 | – | –
10 | CC(N(C(=O)c1c(C(F)F)nn(C)c1F)C1CC1)C(C)(C)Cc1ccc(Cl)cc1Cl (stereo not shown) [Example 181] | 100 | 100 | 78 | 100 | – | 95 | 100 | 5.14 | – | – | 100 | 100 | –
11 | CC(CCc1c(Cl)cc(Cl)cc1Cl)N(C(=O)c1c(C(F)F)nn(C)c1F)C1CC1 (stereo not shown) [Example 213] | 100 | – | – | 100 | 90 | 95 | 99 | 5.14 | 100 | 93 | 100 | 93 | % Inhibition of fungal growth at 50 μM (Aspergillus parasiticus): 100%; Efficacy (Botrytis cinerea): 86%
12 | CON(C(=O)c1c(C(F)F)nn(C)c1Cl)C(C)CCc1c(Cl)cc(Cl)cc1Cl (stereo not shown) [Example 218] | 100 | 100 | 95 | 90 | – | – | – | 4.89 | – | 100 | – | 86 | –
13 | Cn1nc(C(F)F)c(C(=O)NC2CCCC2CCC(C)(C)C)c1F (stereo not shown) [Example 319, 3-(difluoromethyl)-N-[2-(3,3-dimethylbutyl)cyclopentyl]-5-fluoro-1-methyl-1H-pyrazole-4-carboxamide] | 100 | – | – | 100 | – | – | 100 | – | – | 100 | 100 | 100 | inhibition at 50 µM ([1]; Aspergillus parasiticus, 168 h, read-out: % Inhibition of Aflatoxin at 50 μM): 100%; pest or weed control at 500 ppm (Puccinia triticina; Puccinia triticina, 192 h, read-out: Efficacy): 80%; inhibition at 50 µM (Aspergillus parasiticus; Aspergillus parasiticus, 168 h, read-out: % Inhibition of fungal growth at 50 μM): 89%; Efficacy (Botrytis cinerea): 73%; chromatographic logP ([2]; log P (isomer A)): 4.22; chromatographic logP ([2]; log P (isomer B)): 4.28; chromatographic logP ([2]; logP): 4.22
14 | Cn1nc(C(F)F)c(C(=O)NC2CCCC2CCC(C)(C)C)c1Cl (stereo not shown) [Example 320] | 95 | 100 | 99 | 100 | 70 | – | 100 | 4.49 | 99 | – | – | – | % Inhibition of fungal growth at 50 μM (Aspergillus parasiticus): 82%
15 | CCCCCCC1CCCCC1NC(=O)c1c(C(F)F)nn(C)c1F (stereo not shown) [Example 326] | – | – | – | – | 100 | – | – | 5.07 | – | 92 | – | 78 | –
16 | CCCCC1CCCCC1NC(=O)c1c(C(F)F)nn(C)c1Cl (stereo not shown) [Example 331] | 95 | 100 | 100 | 100 | 90 | – | 100 | 4.10 | 99 | 100 | 100 | 100 | % Inhibition of fungal growth at 50 μM (Aspergillus parasiticus): 79%
